The source of these data is patent publication US20180360766A1, “OVARIAN CANCER SPECIFICALLY TARGETED BIODEGRADABLE AMPHIPHILIC POLYMER, POLYMER VESICLE PREPARED THEREBY AND USE THEREOF” (BRIGHTGENE BIO-MEDICAL TECHNOLOGY CO., LTD., priority 2016, published 2018).

One data set is described as follows: in vivo. To be noted: Balb/C nude, mouse, 10 mg/kg.
The subject of another data set is A2780 cells. Briefly: Toxicity of drug-loaded vesicles to A2780 by MTT. The data set is classed as cell-based. Particulars: Homo sapiens; A2780, CPT.HCl, 4 h co-cultivation + 44 h; transferrin-CLPs with 30% transferrin.
Data set [1] relates to A2780 subcutaneous ovarian cancer. Briefly: Antitumor effect, A2780 subcutaneous ovarian cancer. Particulars: at 10th day.

Where a name gives a salt, the structure may show the parent alone.

As to `COc1cccc2c1C(=O)c1c(O)c3c(c(O)c1C2=O)C[C@@](O)(C(=O)CO)C[C@@H]3O[C@H]1C[C@H](N)[C@H](O)[C@H](C)O1` [DOX.HCl, doxorubicin hydrochloride], the half-life in the data set “in vivo” is 16.2 min.

With `CCc1c2c(nc3ccc(OC(=O)N4CCC(N5CCCCC5)CC4)cc13)-c1cc3c(c(=O)n1C2)COC(=O)[C@]3(O)CC` [CPT.HCl, irinotecan hydrochloride], in the data set with A2780 cells, the IC50 stood at 4.11 µg/mL. The same compound gave a body weight decrease in data set [1] of 18%.

Usually half-life stands for the time needed for the level to fall by half in the phase considered. Read a high half-life as slow loss. One may read the IC50 as the midpoint of a concentration-inhibition curve.
